We go through 28 compounds from patent publication US10112899B2 (ViiV HEALTHCARE UK LIMITED, priority 2014, dated 2018).

The test concerns HIV in the HTLV-1 transformed cell line MT-4. The test is described as follows: organism not typed. The following applies: MT4, 96 h, MT-4 cells; luciferase/cell titer glo readout after 96 hours; 10 point dose response. It is filed as cell-based. (In general: ATP-based viability assays read luminescence as a measure of living cells.)

Consider `COc1cccc(CN2Cc3c(C)c(-c4ccc(C)cc4)c([C@H](OC(C)(C)C)C(=O)O)c(C)c3C2)c1` [Example 24, (S)-2-(tert-butoxy)-2-(2-(3-methoxybenzyl)-4,7-dimethyl-6-(p-tolyl)isoindolin-5-yl)acetic acid], for which the 50% inhibitory concentration (IC50) (usually the midpoint of a concentration-inhibition curve) worked out at 12 nM.
The figure for `Cc1c(-c2c(C)c3c(c(C)c2[C@H](OC(C)(C)C)C(=O)O)CN(c2nnc(Cc4ccc(F)c(F)c4)o2)C3)cc(F)c2c1CCCO2` (atropisomer, axis not shown; (M)) [Example 203, (S)-2-(tert-butoxy)-2-((M)-2-(5-(3,4-difluorobenzyl)-1,3,4-oxadiazol-2-yl)-6-(8-fluoro-5-methylchroman-6-yl)-4,7-dimethylisoindolin-5-yl)acetic acid] is 63 nM; for `Cc1c(-c2c(C)c3c(c(C)c2[C@H](OC(C)(C)C)C(=O)O)CN(C(=O)Oc2ccccc2)C3)cc(F)c2c1CCCO2` (atropisomer, axis not shown; (M)) [Example 217, (S)-2-(tert-butoxy)-2-((M)-6-(8-fluoro-5-methylchroman-6-yl)-4,7-dimethyl-2-(phenoxycarbonyl)isoindolin-5-yl)acetic acid] it is 12 nM.
The figure for `Cc1c(-c2c(C)c3c(c(C)c2[C@H](OC(C)(C)C)C(=O)O)CN(S(=O)(=O)c2cccc(F)c2)C3)cc(F)c2c1CCCO2` (atropisomer, axis not shown; (M)) [Example 218, (S)-2-(tert-butoxy)-2-((M)-6-(8-fluoro-5-methylchroman-6-yl)-2-((3-fluorophenyl)sulfonyl)-4,7-dimethylisoindolin-5-yl)acetic acid] is 11 nM; for `Cc1ccc(-c2c(C)c3c(c(C)c2[C@H](OC(C)(C)C)C(=O)O)CN(C(=O)C(C)(C)C(F)(F)F)C3)cc1` [Example 241, (S)-2-(tert-butoxy)-2-(4,7-dimethyl-6-(p-tolyl)-2-(3,3,3-trifluoro-2,2-dimethylpropanoyl)isoindolin-5-yl)acetic acid] it is 25 nM; for `Cc1c(-c2c(C)c3c(c(C)c2[C@H](OC(C)(C)C)C(=O)O)CN(C(=O)C(=O)N2CCCCC2)C3)cc(F)c2c1CCCO2` (atropisomer, axis not shown; (M)) [Example 215] it is 10 nM.
`Cc1ccc(-c2c(C)c3c(c(C)c2[C@H](OC(C)(C)C)C(=O)O)CN(C(=S)c2cccc(F)c2)C3)cc1` [Example 288, (S)-2-(tert-butoxy)-2-(2-(3-fluorophenylcarbonothioyl)-4,7-dimethyl-6-(p-tolyl)isoindolin-5-yl)acetic acid] came in with a concentration for half-maximal inhibition (IC50) of 15 nM. This IC50 lies about 1.5-fold higher than the previous one.
Compound `Cc1ccc(-c2c(C)c3c(c(C)c2C(OC(C)(C)C)C(=O)O)CN(S(C)(=O)=O)C3)cc1` (stereo not shown) [Example 15, 2-(tert-Butoxy)-2-(4,7-dimethyl-2-(methylsulfonyl)-6-(p-tolyl)isoindolin-5-yl)acetic acid] showed a half-inhibitory concentration (IC50) of 2130 nM.
On to `Cc1c(-c2c(C)c3c(c(C)c2[C@H](OC(C)(C)C)C(=O)O)CN(C(=O)CC(C)(C)C)C3)cc(F)c2c1CCCO2` (atropisomer, axis not shown; (M)) [Example 104, (S)-2-(tert-butoxy)-2-((M)-2-(3,3-dimethylbutanoyl)-6-(8-fluoro-5-methylchroman-6-yl)-4,7-dimethylisoindolin-5-yl)acetic acid], for which inhibition was half-maximal at 2 nM (IC50).
The figure for `Cc1ccc(-c2c(C)c3c(c(C)c2[C@H](OC(C)(C)C)C(=O)O)CN(C(=O)N2CCCC(F)(F)C2)C3)cc1` [Example 66, (2S)-2-(tert-butoxy)-2-[2-(3,3-difluoropiperidine-1-carbonyl)-4,7-dimethyl-6-(4-methylphenyl)-2,3-dihydro-1H-isoindol-5-yl]acetic acid] is 6 nM.
In the case of `Cc1ccc(-c2c(C)c3c(c(C)c2[C@H](OC(C)(C)C)C(=O)O)CN(C(=O)C2CCC(F)(F)C2)C3)cc1` (stereo partly drawn) [Example 113, (2S)-2-(tert-butoxy)-2-(2-(3,3-difluorocyclopentanecarbonyl)-4,7-dimethyl-6-(p-tolyl)isoindolin-5-yl)acetic acid] it was 10 nM; in that of `Cc1ccc(-c2c(C)c3c(c(C)c2[C@H](OC(C)(C)C)C(=O)O)CN(CCc2ccccc2)C3)cc1` [Example 39, (2S)-2-(tert-butoxy)-2-[4,7-dimethyl-6-(4-methylphenyl)-2-(2-phenylethyl)-2,3-dihydro-1H-isoindol-5-yl]acetic acid], 872 nM; in that of `Cc1c2c(c(C)c([C@H](OC(C)(C)C)C(=O)O)c1C1=CCC(C)(C)CC1)CN(C(=O)c1cccc(F)c1)C2` [Example 302, (S)-2-(tert-butoxy)-2-(6-(4,4-dimethylcyclohex-1-en-1-yl)-2-(3-fluorobenzoyl)-4,7-dimethylisoindolin-5-yl)acetic acid], 4 nM.
On to `COc1ccc(C(=O)N2Cc3c(C)c(-c4cc(F)c5c(c4C)CCCO5)c([C@H](OC(C)(C)C)C(=O)O)c(C)c3C2)cc1F` (atropisomer, axis not shown; (M)) [Example 187, (S)-2-(tert-butoxy)-2-((M)-2-(3-fluoro-4-methoxybenzoyl)-6-(8-fluoro-5-methylchroman-6-yl)-4,7-dimethylisoindolin-5-yl)acetic acid], for which the half-inhibitory concentration (IC50) was 3 nM.
In the case of `Cc1ccc(-c2c(C)c3c(c(C)c2[C@H](OC(C)(C)C)C(=O)O)CN(Cc2cccc(Cl)c2)C3)cc1` [Example 45, (2S)-2-(tert-butoxy)-2-{2-[(3-chlorophenyl)methyl]-4,7-dimethyl-6-(4-methylphenyl)-2,3-dihydro-1H-isoindol-5-yl}acetic acid] it was 43 nM; in that of `Cc1c(-c2c(C)c3c(c(C)c2[C@H](OC(C)(C)C)C(=O)O)CN(C(=O)N2CCC(F)(F)C2)C3)ccc2c1NCCO2` (atropisomer, axis not shown; (M)) [Example 312, (S)-2-(tert-butoxy)-2-((M)-2-(3,3-difluoropyrrolidine-1-carbonyl)-4,7-dimethyl-6-(5-methyl-3,4-dihydro-2H-benzo[b][1,4]oxazin-6-yl)isoindolin-5-yl)acetic acid], 6 nM; in that of `COc1ccc(C(=O)N2Cc3c(C)c(-c4cc(F)c5c(c4C)CCCO5)c([C@H](OC(C)(C)C)C(=O)O)c(C)c3C2)cc1C` (atropisomer, axis not shown; (M)) [Example 192, (S)-2-(tert-butoxy)-2-((M)-6-(8-fluoro-5-methylchroman-6-yl)-2-(4-methoxy-3-methylbenzoyl)-4,7-dimethylisoindolin-5-yl)acetic acid], 5 nM.
In the case of `Cc1ccc(-c2c(C)c3c(c(C)c2[C@H](OC(C)(C)C)C(=O)O)CN(C(=O)N2CCCCCCC2)C3)cc1` [Example 65, (2S)-2-[2-(azocane-1-carbonyl)-4,7-dimethyl-6-(4-methylphenyl)-2,3-dihydro-1H-isoindol-5-yl]-2-(tert-butoxy)acetic acid] it was 10 nM.
The figure for `COc1cc(C(=O)N2Cc3c(C)c(-c4ccc(C)cc4)c([C@H](OC(C)(C)C)C(=O)O)c(C)c3C2)ccc1F` [Example 251, (S)-2-(tert-butoxy)-2-(2-(4-fluoro-3-methoxybenzoyl)-4,7-dimethyl-6-(p-tolyl)isoindolin-5-yl)acetic acid] is 3 nM; for `Cc1ccc(-c2c(C)c3c(c(C)c2[C@H](OC(C)(C)C)C(=O)O)CN(C(=O)N2CCNCC2)C3)cc1` [Example 86, (S)-2-(tert-butoxy)-2-(4,7-dimethyl-2-(piperazine-1-carbonyl)-6-(p-tolyl)isoindolin-5-yl)acetic acid] it is 1160 nM; for `Cc1ccc(-c2c(C)c3c(c(C)c2[C@H](OC(C)(C)C)C(=O)O)CN(CC2CCCCC2)C3)cc1` [Example 30, (S)-2-(tert-butoxy)-2-(2-(cyclohexylmethyl)-4,7-dimethyl-6-(p-tolyl)isoindolin-5-yl)acetic acid] it is 47 nM.
Consider `Cc1ccc(-c2c(C)c3c(c(C)c2[C@H](OC(C)(C)C)C(=O)O)CN(C(=O)NCc2ccccc2)C3)cc1` [Example 34, (S)-2-(2-(benzylcarbamoyl)-4,7-dimethyl-6-(p-tolyl)isoindolin-5-yl)-2-(tert-butoxy)acetic acid], for which the IC50 amounted to 86 nM.
The compound `Cc1ccc(-c2c(C)c3c(c(C)c2[C@H](OC(C)(C)C)C(=O)O)CN(C(=O)c2ccccc2C)C3)cc1` [Example 219, (S)-2-(tert-butoxy)-2-(4,7-dimethyl-2-(2-methylbenzoyl)-6-(p-tolyl)isoindolin-5-yl)acetic acid] came in with an IC50 of 4 nM.
Turning to `Cc1c(-c2c(C)c3c(c(C)c2[C@H](OC(C)(C)C)C(=O)O)CN(c2nnc(-c4cccc(F)c4)o2)C3)cc(F)c2c1CCCO2` (atropisomer, axis not shown; (M)) [Example 201, (S)-2-(tert-butoxy)-2-((M)-6-(8-fluoro-5-methylchroman-6-yl)-2-(5-(3-fluorophenyl)-1,3,4-oxadiazol-2-yl)-4,7-dimethylisoindolin-5-yl)acetic acid], half-maximal inhibition (IC50) required 387 nM.
As to `Cc1ccc(-c2c(C)c3c(c(C)c2[C@H](OC(C)(C)C)C(=O)O)CN(CC(=O)N2CCCCC2)C3)cc1` [Example 127, (S)-2-(tert-butoxy)-2-(4,7-dimethyl-2-(2-oxo-2-(piperidin-1-yl)ethyl)-6-(p-tolyl)isoindolin-5-yl)acetic acid], the IC50 is 318 nM.
In the case of `Cc1cncc(C(=O)N2Cc3c(C)c(-c4cc(F)c5c(c4C)CCCO5)c([C@H](OC(C)(C)C)C(=O)O)c(C)c3C2)c1` (atropisomer, axis not shown; (M)) [Example 182, (S)-2-(tert-butoxy)-2-((M)-6-(8-fluoro-5-methylchroman-6-yl)-4,7-dimethyl-2-(5-methylnicotinoyl)isoindolin-5-yl)acetic acid] it was 5 nM.
Take `Cc1ccc(-c2c(C)c3c(c(C)c2[C@H](OC(C)(C)C)C(=O)O)CN(C(=O)c2cccc(F)c2C)C3)cc1` [Example 221, (S)-2-(tert-butoxy)-2-(2-(3-fluoro-2-methylbenzoyl)-4,7-dimethyl-6-(p-tolyl)isoindolin-5-yl)acetic acid]: half-maximal inhibition (IC50) was put at 4 nM.
In the case of `Cc1ccc(-c2c(C)c3c(c(C)c2[C@H](OC(C)(C)C)C(=O)O)CN(C(=O)N2CCC(C)CC2)C3)cc1` [Example 81, (S)-2-(tert-butoxy)-2-(4,7-dimethyl-2-(4-methylpiperidine-1-carbonyl)-6-(p-tolyl)isoindolin-5-yl)acetic acid] it was 16 nM.
